Experimental findings from patent publication US20180348208A1, “Systems And Methods For Determining The Risk Of Severe Allergic Reaction To Allergen, And The Immunological Protection Afforded By Vaccines” (FlowMetric Life Sciences, priority 2017, published 2018) are described below.

The subject of one test is T cells. In words: T cell activation detection by flow cytometry in stimulated human whole blood. Format: cell-based. The protocol:
Human whole blood can be obtained and diluted 1:5 in RPMI media and stimulated with 0, 20, 40, 60, 80, and 100 μg/mL (of blood) of phytohemagglutinin (PHA) for about 20 hours at 37° C. and 5% CO2. In parallel, blood samples can be treated with a buffer (no PHA) as a stimulation control. Following the stimulation period, blood samples can be stained with fluorescently-labeled antibodies to T cell markers, including CD4, CD25, CD69, and CD71. Fluorescently-labeled (FITC, APC, PE, PerCP-Cy5, and APC-Cy7) antibodies can be mixed with 100 μIL of PHA-stimulated blood samples or with unstimulated blood control samples in parallel, and each of the samples were can then be incubated, protected from light, for a minimum of 30 minutes. Following incubation with the labeled antibodies, the samples can be washed with BSA Stain Buffer. In parallel, samples can be separately incubated with isotype control antibodies. Following washing, red blood cells can be lysed with 1 mL of 1× Pharm Lyse™ by incubation with this reagent for 15 minutes. Samples can be centrifuged, and washed again with BSA Stain Buffer. All samples can be fixed and permeabilized with eBiosciences Fix and Perm solutions according to the manufacturer's instructions. FoxP3 can be added to the fixed/permeabilized samples, and the samples can be incubated for a minimum of 30 minutes. Samples can be washed with BSA Stain Buffer, and 1 μL of Violet Live/Dead is added to the samples and incubated, protected from light, for a minimum of 15 minutes. Samples and controls can be run through a FACSAria III flow cytometer. The flow cytometer can be calibrated, and compensation can be performed according to standard requirements and procedures. Cells can be suspended at a density of 1,000,000 cells per mL in a tube, and run through the flow cytometer for analysis. One hundred thousand events can be collected per analysis. T cells can be identified by their forward (FSC) and side (SSC) scatter profiles, and gated accordingly. T cells can further be analyzed according to the T cell marker profiles (Fox3, CD4, CD25, cD69, and CD71).
On the technique in general: Flow cytometry measures light scatter and fluorescence of single cells or particles in a stream.

Test [1] deals with leukocytes and CD3+ lymphocytes. In words: Detection of leukocyte and lymphocyte activation markers involved in allergic response by flow cytometry. Format: cell-based, Human. The method, then:
Human whole blood was obtained from a normal control individual and from an individual with a severe allergy to Amoxicillin. The blood was diluted 1:5 in RPMI media, then stimulated with either 50 μM Amoxicillin for 20 minutes to 1 hour at 37° C. and 5% CO2. In parallel, blood samples were treated with a buffer as a stimulation control, or with 50 μg/mL of the potent polymorphonuclear leukocyte (PMN) chemotactic factor fMLP (N-Formylmethionyl-leucyl-phenylalanine).
Following the stimulation period, blood samples were stained with fluorescently-labeled antibodies to leukocyte activation markers CD294, CD203a or lymphocyte activation markers CD71 and CD69 with the use of CD3 to identify CD3+ lymphocytes. Each of the samples were then incubated, protected from light, for a minimum of 30 minutes. Following incubation with the labeled antibodies, the samples were washed with BSA Stain Buffer. In parallel, samples were separately incubated with isotype control antibodies.
Following washing, red blood cells were lysed with 1 mL of 1× Pharm Lyse™ by incubation with this reagent for 15 minutes. Samples were centrifuged, and washed again with BSA Stain Buffer.
Samples and controls were then run through a FACS CANTO flow cytometer. The flow cytometer was calibrated, and compensation was performed according to standard requirements and procedures. Cells were suspended at a density of 1,000,000 cells per mL in a tube, and run through the flow cytometer for analysis. One hundred thousand events were collected per analysis.
Live cells were gating based on their low staining with FVS450. Lymphocytes and leukocytes were identified by their forward (FSC) and side (SSC) scatter profiles, and gated accordingly. CD+ lymphocytes were then further analyzed according to activation markers CD69 and CD71.

The mark [2] stands for this setting: human whole blood diluted 1:5 in RPMI, PHA stimulation about 20 hours at 37° C.
[3] abbreviates: increasing amounts of PHA, 0 to 100 micrograms over 20 microgram increments.
The mark [4] stands for this setting: blood from allergic donor (highly sensitive to Amoxicillin), 50 μM, 20 minutes to 1 hour.
The mark [5] stands for this setting: blood from non-allergic donor, 50 μM, 20 minutes to 1 hour.
[6] abbreviates: fMLP-stimulated blood samples, 50 μg/mL.

For the compound Phytohemagglutinin [PHA], the “stimulation of normal whole blood CD71, CD69, FoxP3 and CD25+ cells” value in the test with T cells (20-100 μg/mL PHA) was “stimulated”. Besides, in the test on T cells (setting [2]), the “CD4 expression on the T cells” value is reported as “substantial increase”; the “expression of CD25, CD69, CD71, and FoxP3 on the T cells” value was “significant increase”. Besides, the “level of CD69 expression on CD4+ cells” value with T cells (increasing amounts of PHA, 0 to 100 micrograms) is reported as “enhancement”. Also, in the test with T cells (setting [3]), the “level of CD71 expression on CD4+ cells” value is on record as “enhancement” and the “level of FoxP3 expression on CD4+ cells” value was “enhancement”.
Regarding `CC1(C)S[C@@H]2[C@H](NC(=O)[C@H](N)c3ccc(O)cc3)C(=O)N2[C@H]1C(=O)O` [Amoxicillin], in test [1] (setting [4]), the “expression of CD69 and CD71 on CD3+ lymphocytes” value was “increased expression”; the “expression of CD294 and CD203a on leukocytes” value is listed as “increased expression”. In test [1] (setting [5]), the “CD71 or CD69 on lymphocytes” value is recorded as “did not show an increase”; the “CD294 and CD203a on leukocytes” value is on record as “did not show an increase”.
For the compound `CSCC[C@H](NC=O)C(=O)N[C@@H](CC(C)C)C(=O)N[C@@H](Cc1ccccc1)C(=O)O` [fMLP, N-Formylmethionyl-leucyl-phenylalanine], in test [1] (setting [6]), the “CD294 and CD203a expression on leukocytes” value is recorded as “substantial increase”; the “expression of CD71 and CD69 on lymphocytes” value was “significant increase”.
